This is an account of results in US20240285631A1, “METHODS OF TREATING VASCULAR MALFORMATIONS” (priority 2023, published 2024).

One data set deals with VEGF-A signaling. Briefly: Western Blot of VEGF-A-induced signaling in HUVECs. Conditions: Palbociclib pre-treatment 24 h, 15-minute VEGF-A stimulation. Type of data set: cell-based, human. The method, then:
(§1) FIG. 8A illustrates Western Blot analysis of the phosphorylation of the indicated proteins in response to VEGF-A (1.5 nM) in control vs. CDK4/6i treated HUVECs. FIG. 8B illustrates Western Blot analysis of the phosphorylation of the indicated proteins in response to BMP9 (10 ng/ml) in control vs. CDK4/6i-treated HUVECs. FIG. 8C illustrates quantification of phosphorylation normalized to total protein levels. (N=5 independent experiments, Data are mean±SEM, Mann-Whitney U test: *p<0.05). […] FIG. 8E illustrates ENDOGLIN (green) and IB4 (white) staining of retinal flat-mounts from P5 Alk1^fl/fl, Alk1^fl/fl treated with CDK4/6i, Alk1EC^iKO, and Alk1EC^iKO treated with CDK4/6i animals (A: Artery; V: Vein). FIG. 8F illustrates quantification of fluorescence intensity of ENDOGLIN staining in (FIG. 8E) retinal venous vessels of the indicated animals (N=4 retinas per group. Data are mean±SEM, one-way ANOVA with Tukey's multiple comparison test: *p<0.05; ns p>0.05). FIG. 8G illustrates timeline used for Tx injection, and CDK4/6i and FLT1 blocking antibody treatment of Alk1EC^iKO pups. […]
(§2) Next, we treated HUVECs with Alk1 siRNA to silence Alk1 and test the VEGF-A-induced response, with or without Palbociclib treatment, using pAKT activation as a readout.
For orientation: Immunoblotting shows a protein as a band on a membrane.

The test system of data set [1] is retinal ECs of Alk1EC^iKO-Fucci2 pups. Kind of data set: Endothelial cell cycle state in Alk1EC^iKO-Fucci2 pups. Type of data set: in vivo, mouse. Conditions: Alk1EC^iKO + CDK4/6i. The source says: All animal protocols and procedures were approved by the University of Virginia Animal Care and Use Committee and complied with all ethical regulations. Cdh5Cre^ERT21Rha^43 and Alk1^flox/flox were gifted from Drs. Ralf Adams and Paul Oh, respectively. R26p-Fucci2 (Fucci2) (Accession #CDB0203T)^44 and C57bl/6 mice were purchased from Riken and Jax, respectively. Cdh5Cre^ERT2 mice were crossed with Alk1^flox/flox mice (6-8-week-old) to generate Alk1EC^iKO pups. Cre activity in Alk1EC^iKO was induced in pups at P3 via a single intraperitoneal (i.p.) injection of Tamoxifen (Tx; Sigma T5648, […] of 4 mg/ml, resuspended in 10% ethanol and 90% corn oil). Alk1^flox/flox littermates were used as controls. Alk1EC^iKO mice were crossed with Fucci2 mice to generate Alk1EC^iKO-Fucci2 pups.

Data set [2] has as its system vascular anomalies in lungs and intestinal tracts of anti-BMP9/10-treated pups. Briefly: Blue latex dye vascular perfusion of lungs and duodenum in BMP9/10 Abs-treated pups. Type of data set: in vivo, mouse. Conditions: P7, BMP9/10 Abs + CDK4/6i.
From the text: Vascular perfusion assessed using blue latex dye in lungs (FIGS. 10C-D), duodenum (FIGS. 10E-F) and brain (FIGS. 10G-H) from control, BMP9/10 Abs-treated, BMP9/10 Abs- and CDK4/6i-treated P7 animals. Lung samples have been clarified. Quantifications of intrapulmonary artery diameter (FIG. 10D) and intestinal capillary diameter (FIG. 10F). Red arrows indicate intestinal capillaries (N=3 to 7 animals/group. Data are mean±SEM, one-way ANOVA with Holm-Šidàk's multiple comparison test, **p≤0.01, *p≤0.05, ns p>0.05). […] We then analyzed the effects of BMP9/10 antibodies and CDK4/6i treatment on lungs, brains, and intestinal tracts, which are commonly affected by vascular malformations in HHT patients. To visualize vascular anomalies in these tissues, we performed intracardiac injections of blue latex silicon dye in P7 control, and anti-BMP9/10-treated pups, with or without CDK4/6i treatment following the dosing protocol as shown in FIG. 2A. […] P7 pups were deeply anesthetized with isoflurane using a nose cone and a thoracotomy was performed to expose the heart. For brain and gastrointestinal vasculature perfusions, the right atrium was cut and an insulin syringe (27 G) pre-filled with 1 ml of blue latex (VWR 470024-612) was inserted in the apex of the left ventricle to perfuse approximately 600 ml of latex. […]
Data set [3] relates to retinal ECs in veins and arteries. Briefly: Flow-mediated EC polarization (Golgi orientation) in retinal vessels, BMP9/10 Abs model. Type of data set: in vivo, mouse. The conditions noted are these: BMP9/10 Abs + CDK4/6i.
From the text: FIG. 3C illustrates the polarity axis of each cell was defined as the angle between the direction of blood flow and the cell polarity axis, defined by a vector drawn from the center of the cell nucleus to the center of the Golgi apparatus. FIG. 3D illustrates EC polarization in arteries and veins of control, BMP9/10 Abs-treated, and BMP9/10 Abs- and CDK4/6i-treated animals. EC nuclei are immunostained with anti-ERG1,2,3 and Golgi apparatus with anti-GM130; ECs are labelled with IB4. […] FIG. 3E illustrates angular histograms showing the distribution of polarization angles of retinal ECs in arteries and veins from control, BMP9/10 Abs-treated, and BMP9/10 Abs- and CDK4/6i-treated P6 animals (N=6 to 8 retinas). FIG. 3F illustrates polarity index dot plots of ECs from arteries (A) and veins (V) from control, BMP9/10 Abs-treated, and BMP9/10 Abs- and CDK4/6i-treated P6 animals (N=6 to 8 retinas. Data are mean±SEM **p≤0.01, ns p>0.05). Two-Way ANOVA for independent measures was used. p≤0.05 was considered statistically significant. […] To analyze the orientation of the Golgi toward the direction of the flow in retinal vessels, we measured the angle formed by the vector nucleus/Golgi in each EC and the predicted blood flow vector in the vessel (as depicted in FIG. 3C). We also quantified the EC polarization using a polarity index^22 ranging from 1 (highly polarized) to 0 (random distribution).
The test system of another data set is ENDOGLIN
Briefly: ENDOGLIN expression in retinal venous ECs of Alk1EC^iKO mice. Type of data set: in vivo, mouse. The conditions noted are these: both mRNA and protein levels. The procedure:
as §1
Eyes from P7 pups were pre-fixed in 4% PFA for 20 min at room temperature (RT). […] Quantification of vascular progression, density, AVM numbers and vessel diameters in the retinal vasculature were performed with Image J software.

Data set [4] deals with retinal vascular development of control pups. Kind of data set: CDK4/6i treatment alone in control C57BL/6 pups, retinal vasculature. Type of data set: in vivo, mouse. The conditions noted are these: P7 control pups, no BMP9/10 Abs. The source says:
FIGS. 10A and 10B illustrate the timeline used for CDK4/6i treatment alone in C57BL/6 pups and representative images showing retinal vasculature of P7 animals labelled with IB4 (N=3 to 4 animals/group). Vascular perfusion assessed using blue latex dye in lungs (FIGS. 10C-D), duodenum (FIGS. 10E-F) and brain (FIGS. 10G-H) from control, BMP9/10 Abs-treated, BMP9/10 Abs- and CDK4/6i-treated P7 animals. Lung samples have been clarified. Quantifications of intrapulmonary artery diameter (FIG. 10D) and intestinal capillary diameter (FIG. 10F). Red arrows indicate intestinal capillaries (N=3 to 7 animals/group. Data are mean±SEM, one-way ANOVA with Holm-Šidàk's multiple comparison test, **p≤0.01, *p≤0.05, ns p>0.05). Quantification of left middle cerebral artery (MCA) and basilar artery (BA) diameter (FIG. 10H). (N=5 to 9 animals/group. Data are mean±SEM, one-way ANOVA with Holm-Sidak's multiple comparison test, ns p>0.05). Scale bars: (FIGS. 10C and 10G): 2 mm, (E): 1 mm.
Thus, to test whether the use of pharmacological cell cycle modulators could prevent the development of AVMs in a murine model of HHT, we used Palbociclib, a CDK4 and CDK6 inhibitor (CDK4/6i) that blocks the transition from G1 to S state^8. Pups were injected at P2 and P4 with BMP9/10 antibodies, followed by Palbociclib treatment starting at P4, then at P5 and P6 (FIG. 2A).

A further data set has as its system BMP9 signaling. Briefly: Western Blot of BMP9-induced signaling in HUVECs. Type of data set: cell-based, human. The conditions noted are these: Palbociclib pre-treatment. The procedure: as §1, §2
The subject of the next data set is HUVECs. Kind of data set: Agilent Seahorse mitochondrial stress test in HUVECs. Type of data set: cell-based, human. Further details: dose or concentration left out as unconfirmed. Conditions: HUVECs pretreated with Palbociclib, vs control cells.

On to `CC(=O)c1c(C)c2cnc(Nc3ccc(N4CCNCC4)cn3)nc2n(C2CCCC2)c1=O` [Palbociclib, 6-acetyl-8-cyclopentyl-5-methyl-2-[5-(1-piperazinyl)pyridine-2-ylamino]pyrido[2,3-d]pyrimidin-7(8H)-one], for which, in the data set on VEGF-A signaling, the “pAKT activation in response to VEGF-A” value is reported as “significantly decreased” and the “pERK1/2 activation in response to VEGF-A” value was “significantly decreased”. Moreover, the “percentage of ECs residing in the S/G2/M phases” value in data set [1] (tamoxifen P3, Palbociclib P4, P5) was “significantly lower in arteries and capillaries”. Further, the “proportion of ECs in late G1 state” value in data set [1] (arteries and capillaries) is “higher proportion of ECs in late G1 state”. For the same compound, the “cell cycle state of venous ECs” value in data set [1] (veins) is listed as “no significant effects on venous ECs”. The “vasodilation of small capillaries perfusing the duodenum” value in data set [2] (duodenum) is on record as “not prevented by CDK4/6i treatment”. The “lung vascular anomalies and intrapulmonary artery diameter” value in data set [2] (lungs) was “significantly less vascular anomalies and intrapulmonary microvasculature vasodilation”. For the same compound, the “polarity of retinal ECs toward blood flow” value in data set [3] is “oriented similarly to controls”. The “expression of ENDOGLIN in venous ECs” value with ENDOGLIN was “promoted the expression of ENDOGLIN in venous ECs”. Besides, the “retinal vascular development under CDK4/6i treatment by itself” value in data set [4] is “did not impair retinal vascular development”. In the data set on BMP9 signaling, the “SMAD1/5/8 phosphorylation in response to BMP9” value is “enhanced SMAD1/5/8 phosphorylation”. Also, in the data set with HUVECs, the “mitochondrial basal respiration (basal OCR)” value is reported as “significantly lower” and the “respiratory capacity (OCR)” value is “significantly lower”.
